Tests used:
Experiment in all cases: relative viability (nuclei count vs DMSO), 5 days (fraction); higher = more cells survive
Dovitinib + Decitabine = compound: CN1CCN(c2ccc3nc(-c4c(N)c5c(F)cccc5[nH]c4=O)[nH]c3c2)CC1 [Dovitinib] + Nc1ncn([C@H]2C[C@H](O)[C@@H](CO)O2)c(=O)n1 [Decitabine] (partner 2 µM)
Outline: (§1)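 Cells from lung cancer lines were seeded into 1536-well plates and, one day later, dosed by pin tool. Treatments were either a single drug or a fixed dose of an anchor drug with five library-drug doses (not always all listed) in √10 steps. After 5 days, nuclei were stained in a one-step fixation (final 0.05% Triton X-100, 1% formaldehyde, 1 ug/ml Hoechst) and counted on 4× images, and relative viability is the treated-to-vehicle nuclei ratio, as the median of duplicate plates.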

Dovitinib + Bortezomib = compound: CN1CCN(c2ccc3nc(-c4c(N)c5c(F)cccc5[nH]c4=O)[nH]c3c2)CC1 [Dovitinib] + CC(C)C[C@H](NC(=O)[C@H](Cc1ccccc1)NC(=O)c1cnccn1)B(O)O [Bortezomib] (partner 0.002 µM)
Outline: as §1

Dovitinib + Tozasertib = compound: CN1CCN(c2ccc3nc(-c4c(N)c5c(F)cccc5[nH]c4=O)[nH]c3c2)CC1 [Dovitinib] + Cc1cc(Nc2cc(N3CCN(C)CC3)nc(Sc3ccc(NC(=O)C4CC4)cc3)n2)n[nH]1 [Tozasertib] (partner 0.1 µM)
Outline: as §1

Dovitinib + AZD7762 = compound: CN1CCN(c2ccc3nc(-c4c(N)c5c(F)cccc5[nH]c4=O)[nH]c3c2)CC1 [Dovitinib] + NC(=O)Nc1cc(-c2cccc(F)c2)sc1C(=O)N[C@H]1CCCNC1 [AZD7762] (partner 0.2 µM)
Outline: as §1

Cell Line | relative viability (Dovitinib + Decitabine; first compound 0.02 µM) | relative viability (Dovitinib + Decitabine; first compound 0.06325 µM) | relative viability (Dovitinib + Decitabine; first compound 0.2 µM) | relative viability (Dovitinib + Decitabine; first compound 0.6325 µM) | relative viability (Dovitinib + Decitabine; first compound 2 µM) | relative viability (Dovitinib + Bortezomib; first compound 0.02 µM) | relative viability (Dovitinib + Bortezomib; first compound 0.06325 µM) | relative viability (Dovitinib + Bortezomib; first compound 0.2 µM) | relative viability (Dovitinib + Bortezomib; first compound 0.6325 µM) | relative viability (Dovitinib + Bortezomib; first compound 2 µM) | relative viability (Dovitinib + Tozasertib; first compound 0.02 µM) | relative viability (Dovitinib + Tozasertib; first compound 0.06325 µM) | relative viability (Dovitinib + Tozasertib; first compound 0.2 µM) | relative viability (Dovitinib + Tozasertib; first compound 0.6325 µM) | relative viability (Dovitinib + Tozasertib; first compound 2 µM) | relative viability (Dovitinib + AZD7762; first compound 0.02 µM) | relative viability (Dovitinib + AZD7762; first compound 0.06325 µM) | relative viability (Dovitinib + AZD7762; first compound 0.2 µM) | relative viability (Dovitinib + AZD7762; first compound 0.6325 µM) | relative viability (Dovitinib + AZD7762; first compound 2 µM)
HCC-366 | 0.341 | 0.363 | 0.362 | 0.317 | 0.378 | 1.08 | 1.06 | 0.987 | 1.06 | 0.999 | 0.0642 | 0.143 | 0.14 | 0.127 | 0.111 | 0.155 | 0.301 | 0.297 | 0.239 | 0.357
NCI-H1944 | 0.388 | 0.374 | 0.455 | 0.454 | 0.434 |  |  |  |  |  | 0.235 | 0.258 | 0.225 | 0.272 | 0.255 | 0.564 | 0.788 | 0.531 | 0.523 | 0.475
SW 1573 | 0.479 | 0.516 | 0.612 | 0.397 | 0.629 | 0.985 | 1.06 | 0.997 | 1.08 | 1.03 | 0.183 | 0.175 | 0.163 | 0.144 | 0.164 |  |  |  |  | 
COR-L 105 | 0.596 | 0.622 | 0.619 | 0.657 | 0.646 | 0.779 | 0.666 | 0.86 | 0.84 | 0.965 | 0.345 | 0.299 | 0.365 | 0.394 | 0.168 |  |  |  |  | 
EBC-1 |  |  |  |  |  | 0.543 | 0.488 | 0.571 | 0.564 | 0.587 |  |  |  |  |  |  |  |  |  | 
SK-LU-1 | 0.614 | 0.636 | 0.662 | 0.758 | 0.572 | 0.977 | 0.993 | 1.06 | 1.28 | 1.26 | 0.305 | 0.375 | 0.33 | 0.325 | 0.409 |  |  |  |  | 
NCI-H1648 | 0.502 | 0.445 | 0.444 | 0.455 | 0.458 |  |  |  |  |  | 0.491 | 0.532 | 0.562 | 0.402 | 0.564 | 0.497 | 0.717 | 0.661 | 0.701 | 0.634
SW 900 | 0.395 | 0.456 | 0.444 | 0.377 | 0.444 |  |  |  |  |  | 0.459 | 0.537 | 0.533 | 0.582 | 0.689 | 0.591 | 0.62 | 0.505 | 0.681 | 0.615
NCI-H520 | 0.477 | 0.504 | 0.488 | 0.499 | 0.514 | 0.527 | 0.725 | 0.63 | 0.488 | 0.348 | 0.453 | 0.486 | 0.409 | 0.431 | 0.427 |  |  |  |  | 
UMC-11 | 0.614 | 0.589 | 0.64 | 0.575 | 0.715 | 0.77 | 0.669 | 0.881 | 0.81 | 0.668 | 0.213 | 0.201 | 0.203 | 0.199 | 0.22 |  |  |  |  | 
NCI-H1792 | 0.539 | 0.6 | 0.468 | 0.502 | 0.505 | 0.938 | 0.935 | 0.998 | 1.04 | 0.918 |  |  |  |  |  | 0.559 | 0.761 | 0.676 | 0.796 | 0.559
NCI-H1793 | 0.548 | 0.602 | 0.567 | 0.446 | 0.498 |  |  |  |  |  | 0.32 | 0.399 | 0.362 | 0.266 | 0.343 | 0.453 | 0.316 | 0.505 | 0.306 | 0.53
NCI-H1563 |  |  |  |  |  | 0.962 | 0.879 | 0.977 | 0.938 | 0.908 |  |  |  |  |  |  |  |  |  | 
NCI-H1395 | 0.719 | 0.668 | 0.747 | 0.713 | 0.696 |  |  |  |  |  | 0.721 | 0.75 | 0.81 | 0.765 | 0.815 | 0.425 | 0.366 | 0.435 | 0.374 | 0.398
NCI-H1299 |  |  |  |  |  | 0.977 | 1.03 | 1.06 | 1.05 | 1.03 |  |  |  |  |  |  |  |  |  | 
NCI-H2228 |  |  |  |  |  | 0.845 | 0.952 | 0.827 | 0.897 | 0.875 | 0.249 | 0.281 | 0.207 | 0.216 | 0.265 |  |  |  |  | 
NCI-H2170 | 0.466 | 0.496 | 0.529 | 0.458 | 0.458 |  |  |  |  |  | 0.658 | 0.856 | 0.733 | 0.787 | 0.787 | 0.773 | 1.02 | 0.928 | 0.857 | 0.883
NCI-H522 | 0.651 | 0.647 | 0.665 | 0.727 | 0.785 |  |  |  |  |  | 0.549 | 0.583 | 0.536 | 0.54 | 0.665 | 0.704 | 0.81 | 0.878 | 0.813 | 0.974
A549 | 0.225 | 0.329 | 0.248 | 0.292 | 0.237 |  |  |  |  |  |  |  |  |  |  |  |  |  |  | 
NCI-H358 | 0.237 | 0.214 | 0.247 | 0.238 | 0.206 |  |  |  |  |  | 0.104 | 0.101 | 0.115 | 0.11 | 0.106 | 0.483 | 0.518 | 0.444 | 0.544 | 0.517
CAL-12T |  |  |  |  |  | 1.28 | 1 | 1.1 | 0.977 | 1.05 | 0.28 | 0.3 | 0.341 | 0.262 | 0.285 | 0.648 | 0.664 | 0.558 | 0.659 | 0.505
COR-L23 | 0.439 | 0.43 | 0.438 | 0.501 | 0.484 | 0.82 | 1.03 | 1.06 | 1.16 | 1.16 | 0.207 | 0.191 | 0.194 | 0.172 | 0.215 |  |  |  |  | 
IA-LM |  |  |  |  |  | 0.787 | 1.01 | 0.666 | 0.837 | 0.772 |  |  |  |  |  |  |  |  |  | 
NCI-H1650 | 0.448 | 0.362 | 0.489 | 0.44 | 0.442 | 0.209 | 0.206 | 0.201 | 0.189 | 0.203 | 0.394 | 0.349 | 0.424 | 0.325 | 0.361 |  |  |  |  | 
Calu-6 |  |  |  |  |  | 1.05 | 0.992 | 1 | 0.993 | 0.98 |  |  |  |  |  |  |  |  |  | 

Source: the supplement of paper PMC10307832
